Data: patent US10233146B2, “Acetylenic cyanoenones as therapeutics for inflammation and carcinogenesis” (THE RESEARCH FOUNDATION FOR THE STATE UNIVERSITY OF NEW YORK, priority 2015, dated 2019)
Values joined by “and” are separate entries in the source; they are usually repeats but may differ in a detail not shown here. Equal values may be shown once. “Also recorded” adds a separate entry of the source. Read-outs that look alike come from different tables or passages of the source.

What was measured:
[1] = UV study of Michael adduct formation with DTT; format: physicochemical; details: for A (absorbance) With DTT (1 equiv) / λmax With DTT (1 equiv) / A (absorbance) With DTT (10 equiv) / λmax With DTT (10 equiv): 0.1 mM compound, phosphate buffer saline-1% ethanol (pH 7.4), rt; for A (absorbance) With DTT (1 equiv) / λmax With DTT (1 equiv): 0.1 mM DTT; for A (absorbance) With DTT (10 equiv) / λmax With DTT (10 equiv): 1 mM DTT; for K (equilibrium constant): 0.1 mM of compound with 0.1 mM of DTT
Protocol: Calculation of Approximate Equilibrium Constant (K)
The concentrations of 3, with initial concentration of 0.1 mM, and DTT, with initial concentration of 0.1 mM, in the phosphate buffer are calculated to be 0.0855 mM as follows: (1) The absorbance (A) is 0.956 at 0.1 mM concentration of 3 in deionized water. (2) The A of 3 is 0.817 in the phosphate buffer. (3) The concentrations of 3 and DTT in the buffer are calculated to be 0.0855 mM based on (1) and (2). From these concentrations, the approximate K is calculated as follows: K=[Adduct]/[3]×[DTT]=0.0145×10^−3/[…]=2.0×10^3 (Liters/mol).
Unfortunately, since the λmax of 4-8 was not observed due to the overlapping, we can't calculate the concentrations of the adducts of 4-8 by the same method as for 3. However, since we can speculate that the ε of the adducts of 4-8 is almost similar to that of the adduct of 2, we can calculate the concentrations of the adducts of 4-8 based on the A (0.227 at 0.0145 mM) of the adduct of […] and the A of the adducts of 4-8. For example, the concentration of the adduct of 5 is 0.0145×0.369 (A of the adduct of 5)/0.227=0.0235 (mM). Therefore, the concentrations of 5 and DTT are 0.0765 (mM/each). Thus, K of 5=0.0235×10^−3/0.0765×0.0765×10^−6=4.0×10^3 (Liters/mol). The K of 4 and 6-8 are also calculated using the A (0.227 at 0.0145 mM) of the adduct of 3 and the A of the adducts of 4 and 6-8, respectively.
Chemical reactivity of monocyclic, bicyclic, and tricyclic compounds 4-15 as Michael acceptors was evaluated using UV spectroscopy.
Michael reaction between ethynylcyanodienones with DTT give adducts IV (Scheme 11). Since adducts IV have different UV absorption spectra (λmax 330-380 nm) from those of the corresponding ethynylcyanodienones (λmax 230-320 nm), UV spectroscopy can clarify whether or not the Michael adducts are produced.^6
(§1) 1. UV Studies on Monocyclic and Bicyclic Compounds 4-9 with DTT Compounds 5-8 with DTT gave similar UV spectra to those of 3 (Taylor, S. K. et al. 1988). Compounds 5-8 have local maximum absorptions at 332-338 nm upon the addition of DTT (1 and 10 equiv) under dilute (0.1 mM of the compounds) and neutral aqueous conditions (pH 7.4 phosphate buffered saline-1% ethanol containing 1 mM KH2PO4, 5.6 mM Na2HPO4, and 154 mM NaCl) (Table 1 and FIG. 2). Also, these compounds react with a chloride anion (a much weaker nucleophile than a sulfhydryl group of DTT), which is contained in the buffer solution, to give Michael adducts whose local maximum absorptions are observed at 320-326 nm.
We have calculated approximate equilibrium constants (K) of these Michael reactions in the solutions of 5-8 with DTT (each initial concentration, 0.1 mM. See the calculation of the equilibrium constants in the Supporting Information). The values of K are approximately 1.0-4.2×10^3 (L/mol), implying that these additions are very strongly favored.
Tricyclic compounds 10-15 react with DTT to give the adducts whose local maximum absorptions are observed at 374-383 nm range (Table 1 and FIG. 2). […] Among phenanthrene derivatives, substitutents at C5 decrease the reactivity.

[2] = UV study of Michael adduct formation with chloride anion of the buffer (without DTT); format: physicochemical; details: 0.1 mM compound, phosphate buffer saline-1% ethanol (pH 7.4)
Protocol: as §1, with “nm. […]” for “nm.”

NQO1 = assay: Induction of NQO1 in Hepa1c1c7 murine hepatoma cells; format: cell-based; details: for magnitude of NQO1 induction at higher concentrations: FIG. 3, concentrations higher than the CD values; for EC (2-fold NQO1 activity): Hepa1c1c7 cells, 48 h treatment, read-out: NQO1 CD (concentration required to double the specific enzyme activity of NQO1)
Excerpt: In this assay, the concentration required to double (CD value) the specific enzyme activity of NQO1 is used to quantify inducer potency. […] Dinkova-KOstova, A. T. et al. 2012). […] These compounds may be more robust inducers than monocyclic compounds. [table]

Structure (SMILES)	A (absorbance) With DTT (1 equiv) [1]	λmax With DTT (1 equiv) [1] [nm]	A (absorbance) With DTT (10 equiv) [1]	λmax With DTT (10 equiv) [1]	K (equilibrium constant) [1] [L/mol]	A (absorbance) Without DTT (With Cl^—) [2]	λmax Without DTT (With Cl^—) [2] [nm]	magnitude of NQO1 induction at higher concentrations (NQO1)	EC (2-fold NQO1 activity) (NQO1; Mus musculus, Hepa-1c1c7) [µM]	melting point [°C]	IC50 (iNOS) [nM]	EC (2-fold NQO1 activity) (NQO1) [µM]	approximate equilibrium constant K (calculation) ([1]; initial 0.1 mM compound and 0.1 mM DTT, phosphate buffer) [L/mol]	approximate equilibrium constant K of Michael reaction with DTT ([1]; each initial concentration 0.1 mM) [L/mol]
C#CC12C=C(C#N)C(=O)C=C1CCC2 (stereo not shown) [Compound 7, 3a-Ethynyl-6-oxo-2,3,3a,6-tetrahydro-1H-indene-5-carbonitrile]	0.281	333	0.355	337 nm	2700	0.151	324	induce NQO1 more effectively than monocyclic compounds 3-6	0.056	107 to 108	160	–	–	–
C[S+]([O-])CCCCN=C=S (stereo not shown) [Sulforaphane, reference compound]	–	–	–	–	–	–	–	–	0.2	–	400	–	–	–
C#CC1(CC)C=CC(=O)C(C#N)=C1 (stereo not shown) [Compound 6, 3-Ethyl-3-ethynyl-6-oxocyclohexa-1,4-dienecarbonitrile]	0.135	332	0.353	335 nm	1000	0.036	320	–	0.042	73 to 75	–	–	–	–
C#CC12C=C(C#N)C(=O)C=C1c1c(Br)cccc1CC2 (stereo not shown) [Compound 12, 5-Bromo-10a-ethynyl-3-oxo-3,9,10,10a-tetrahydrophenanthrene-2-carbonitrile]	–	–	–	–	–	–	–	–	1.3	202 to 205	650	–	–	–
C#CC12C=C(C#N)C(=O)C=C1c1c(C)cccc1CC2 (stereo not shown) [Compound 13, 10a-Ethynyl-5-methyl-3-oxo-3,9,10,10a-tetrahydrophenanthrene-2-carbonitrile]	–	–	0.279	374 nm	–	–	–	–	1.8	195.5 to 197	940	–	–	–
CC1(C)CC[C@]2(C(=O)O)CC[C@]3(C)[C@H](C(=O)C=C4[C@@]5(C)C=C(C#N)C(=O)C(C)(C)[C@@H]5CC[C@]43C)[C@@H]2C1 [CDDO, reference compound]	–	–	–	–	–	–	–	–	–	–	23	0.0023	–	–
C#CC1(C=C)C=CC(=O)C(C#N)=C1 (stereo not shown) [Compound 5, 3-Ethynyl-6-oxo-3-vinylcyclohexa-1,4-dienecarbonitrile]	0.369	335	0.481	338 nm	4000	0.197	326	–	0.02	76 to 77	16	–	4000	–
C#CC12C=C(C#N)C(=O)C=C1c1ccccc1C2 (stereo not shown) [Compound 14, 9a-Ethynyl-3-oxo-9,9a-dihydro-3H-fluorene-2-carbonitrile]	0.808	377	0.820	382 nm	–	0.867	364	induce NQO1 more effectively than monocyclic compounds 3-6; also recorded: induces NQO1 to a greater magnitude than 3 and 5	0.041	202 to 203	480	–	–	–
C#CC1(C#C)C=CC(=O)C(C#N)=C1 [Compound 4, 3,3-Diethynyl-6-oxocyclohexa-1,4-dienecarbonitrile]	0.614	330	0.510 and 0.439	333 nm and 250 nm	10600	0.635	328	–	0.18	110 to 111	210	–	–	~10600
C#CC12C=C(C#N)C(=O)C=C1C(C)(C)CC2 (stereo not shown) [Compound 8, 3a-Ethynyl-1,1-dimethyl-6-oxo-2,3,3a,6-tetrahydro-1H-indene-5-carbonitrile]	0.376	333	0.472	337 nm	4200	0.279	324	–	0.1	–	200	–	–	–
C#CC12C=C(C#N)C(=O)C=C1c1c(Cl)cccc1CC2 (stereo not shown) [Compound 11, 5-Chloro-10a-ethynyl-3-oxo-3,9,10,10a-tetrahydrophenanthrene-2-carbonitrile]	shoulder	380	0.262	380 nm	–	–	–	induce NQO1 more effectively than monocyclic compounds 3-6	0.9	> 230	–	–	–	–
C#CC12C=C(C#N)C(=O)C=C1c1c(Cl)cccc1C2 (stereo not shown) [Compound 15, 5-Chloro-9a-ethynyl-3-oxo-9,9a-dihydro-3H-fluorene-2-carbonitrile]	0.819	378	0.803	383 nm	–	1.025	369	–	0.13	191 to 193	800	–	–	–
C#CC12C=C(C#N)C(=O)C=C1c1ccccc1CC2 (stereo not shown) [Compound 10, 10a-Ethynyl-3-oxo-3,9,10,10a-tetrahydrophenanthrene-2-carbonitrile]	shoulder	380	0.723	382 nm	–	–	–	induce NQO1 more effectively than monocyclic compounds 3-6	0.15	209.5 to 211	–	–	–	–
C#CC1(C)C=C(C#N)C(=O)c2ccccc21 (stereo not shown) [Compound 9, 4-Ethynyl-4-methyl-1-oxo-1,4-dihydronaphthalene-2-carbonitrile]	0.848	331	0.872	333 nm	–	0.831	321	–	0.22	–	–	–	–	–
